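Step 1: Grow cells in 96-well plates. Step 2: Expose to compound for 48 hours at 5 concentrations. Step 3: Interpolate endpoints linearly; if unreached, use highest concentration. TGI: concentration producing complete growth inhibition.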
Tests used:
Assay in all cases: NCI tumour cell line growth inhibition, 48 h
786-0 renal = tested on: 786-0 renal
A498 renal = tested on: A498 renal
A549 NSCLC = tested on: A549 NSCLC
ACHN renal = tested on: ACHN renal
BT-549 breast = tested on: BT-549 breast
CAKI-1 renal = tested on: CAKI-1 renal
CCRF-CEM leukemia = tested on: CCRF-CEM leukemia
COLO 205 colon = tested on: COLO 205 colon
DU-145 prostate = tested on: DU-145 prostate
EKVX NSCLC = tested on: EKVX NSCLC
HCC-2998 colon = tested on: HCC-2998 colon
HCT-116 colon = tested on: HCT-116 colon
HCT-15 colon = tested on: HCT-15 colon
HL-60(TB) leukemia = tested on: HL-60(TB) leukemia
HOP-62 NSCLC = tested on: HOP-62 NSCLC
HOP-92 NSCLC = tested on: HOP-92 NSCLC
HS 578T breast = tested on: HS 578T breast
HT29 colon = tested on: HT29 colon
IGROV1 ovarian = tested on: IGROV1 ovarian
KM12 colon = tested on: KM12 colon
LOX IMVI melanoma = tested on: LOX IMVI melanoma
M14 melanoma = tested on: M14 melanoma
MALME-3M melanoma = tested on: MALME-3M melanoma
MCF7 breast = tested on: MCF7 breast
MDA-MB-231 breast = tested on: MDA-MB-231 breast
MDA-MB-435 = tested on: MDA-MB-435
MDA-N = tested on: MDA-N
MOLT-4 leukemia = tested on: MOLT-4 leukemia
NCI-H226 lung = tested on: NCI-H226 lung
NCI-H23 lung = tested on: NCI-H23 lung
NCI-H460 lung = tested on: NCI-H460 lung
NCI-H522 lung = tested on: NCI-H522 lung
NCI/ADR-RES ovarian = tested on: NCI/ADR-RES ovarian
OVCAR-3 ovarian = tested on: OVCAR-3 ovarian
OVCAR-4 ovarian = tested on: OVCAR-4 ovarian
OVCAR-5 ovarian = tested on: OVCAR-5 ovarian
OVCAR-8 ovarian = tested on: OVCAR-8 ovarian
PC-3 prostate = tested on: PC-3 prostate
RPMI-8226 leukemia = tested on: RPMI-8226 leukemia
RXF 393 renal = tested on: RXF 393 renal
SF-268 CNS = tested on: SF-268 CNS
SF-295 CNS = tested on: SF-295 CNS
SF-539 CNS = tested on: SF-539 CNS
SK-MEL-2 melanoma = tested on: SK-MEL-2 melanoma
SK-MEL-28 melanoma = tested on: SK-MEL-28 melanoma
SK-MEL-5 melanoma = tested on: SK-MEL-5 melanoma
SK-OV-3 ovarian = tested on: SK-OV-3 ovarian
SN12C renal = tested on: SN12C renal
SNB-19 CNS = tested on: SNB-19 CNS
SNB-75 CNS = tested on: SNB-75 CNS
SR leukemia = tested on: SR leukemia
SW-620 colon = tested on: SW-620 colon
T-47D breast = tested on: T-47D breast
TK-10 renal = tested on: TK-10 renal
U251 CNS = tested on: U251 CNS
UACC-257 melanoma = tested on: UACC-257 melanoma
UACC-62 melanoma = tested on: UACC-62 melanoma
UO-31 renal = tested on: UO-31 renal

COc1c(/C=C/C=O)cc2c(c1OC)OCO2
TGI (786-0 renal): > 100 µM | TGI (A498 renal): 3.15 µM | TGI (A549 NSCLC): > 100 µM | TGI (ACHN renal): > 100 µM | TGI (BT-549 breast): > 100 µM | TGI (CAKI-1 renal): 29.1 µM | TGI (CCRF-CEM leukemia): > 100 µM | TGI (COLO 205 colon): > 100 µM | TGI (DU-145 prostate): > 100 µM | TGI (EKVX NSCLC): > 100 µM | TGI (HCC-2998 colon): 78.5 µM | TGI (HCT-116 colon): > 100 µM | TGI (HCT-15 colon): 40.2 µM | TGI (HL-60(TB) leukemia): 53.1 µM | TGI (HOP-62 NSCLC): 73.7 µM | TGI (HOP-92 NSCLC): > 100 µM | TGI (HS 578T breast): > 100 µM | TGI (HT29 colon): 69.5 µM | TGI (IGROV1 ovarian): 82.4 µM | TGI (KM12 colon): 29.4 µM | TGI (LOX IMVI melanoma): 76 µM | TGI (M14 melanoma): 56.2 µM | TGI (MALME-3M melanoma): 64 µM | TGI (MCF7 breast): > 100 µM | TGI (MDA-MB-231 breast): 80 µM | TGI (MDA-MB-435): > 100 µM | TGI (MDA-N): 94 µM | TGI (MOLT-4 leukemia): 49.6 µM | TGI (NCI-H226 lung): 70 µM | TGI (NCI-H23 lung): > 100 µM | TGI (NCI-H460 lung): > 100 µM | TGI (NCI-H522 lung): > 100 µM | TGI (NCI/ADR-RES ovarian): > 100 µM | TGI (OVCAR-3 ovarian): > 100 µM | TGI (OVCAR-4 ovarian): 85.6 µM | TGI (OVCAR-5 ovarian): > 100 µM | TGI (OVCAR-8 ovarian): > 100 µM | TGI (PC-3 prostate): > 100 µM | TGI (RPMI-8226 leukemia): 43.4 µM | TGI (RXF 393 renal): > 100 µM | TGI (SF-268 CNS): > 100 µM | TGI (SF-295 CNS): 52.1 µM | TGI (SF-539 CNS): > 100 µM | TGI (SK-MEL-2 melanoma): 57.4 µM | TGI (SK-MEL-28 melanoma): > 100 µM | TGI (SK-MEL-5 melanoma): 50.3 µM | TGI (SK-OV-3 ovarian): > 100 µM | TGI (SN12C renal): 59.3 µM | TGI (SNB-19 CNS): 44.8 µM | TGI (SNB-75 CNS): > 100 µM | TGI (SR leukemia): 64.8 µM | TGI (SW-620 colon): > 100 µM | TGI (T-47D breast): > 100 µM | TGI (TK-10 renal): > 100 µM | TGI (U251 CNS): 84.1 µM | TGI (UACC-257 melanoma): > 100 µM | TGI (UACC-62 melanoma): 57 µM | TGI (UO-31 renal): > 100 µM

CN(CC(=O)O)Cc1c(O)c(Cl)cc(Cl)c1Cl
TGI (786-0 renal): > 100 µM | TGI (A498 renal): > 100 µM | TGI (A549 NSCLC): > 100 µM | TGI (ACHN renal): > 100 µM | TGI (BT-549 breast): > 100 µM | TGI (CAKI-1 renal): > 100 µM | TGI (CCRF-CEM leukemia): 50.4 µM | TGI (COLO 205 colon): > 100 µM | TGI (DU-145 prostate): > 100 µM | TGI (EKVX NSCLC): > 100 µM | TGI (HCT-116 colon): > 100 µM | TGI (HCT-15 colon): > 100 µM | TGI (HL-60(TB) leukemia): 44.6 µM | TGI (HOP-62 NSCLC): > 100 µM | TGI (HOP-92 NSCLC): > 100 µM | TGI (HS 578T breast): > 100 µM | TGI (HT29 colon): > 100 µM | TGI (IGROV1 ovarian): > 100 µM | TGI (KM12 colon): > 100 µM | TGI (LOX IMVI melanoma): > 100 µM | TGI (M14 melanoma): > 100 µM | TGI (MALME-3M melanoma): > 100 µM | TGI (MCF7 breast): > 100 µM | TGI (MDA-MB-231 breast): > 100 µM | TGI (MDA-MB-435): > 100 µM | TGI (MDA-N): > 100 µM | TGI (NCI-H226 lung): 92.1 µM | TGI (NCI-H23 lung): > 100 µM | TGI (NCI-H460 lung): 75.4 µM | TGI (NCI-H522 lung): > 100 µM | TGI (NCI/ADR-RES ovarian): > 100 µM | TGI (OVCAR-3 ovarian): 38.8 µM | TGI (OVCAR-4 ovarian): > 100 µM | TGI (OVCAR-5 ovarian): > 100 µM | TGI (OVCAR-8 ovarian): > 100 µM | TGI (PC-3 prostate): > 100 µM | TGI (RPMI-8226 leukemia): > 100 µM | TGI (RXF 393 renal): > 100 µM | TGI (SF-268 CNS): > 100 µM | TGI (SF-295 CNS): > 100 µM | TGI (SF-539 CNS): > 100 µM | TGI (SK-MEL-2 melanoma): > 100 µM | TGI (SK-MEL-28 melanoma): 97.4 µM | TGI (SK-MEL-5 melanoma): > 100 µM | TGI (SK-OV-3 ovarian): > 100 µM | TGI (SN12C renal): > 100 µM | TGI (SNB-19 CNS): > 100 µM | TGI (SNB-75 CNS): > 100 µM | TGI (SR leukemia): 90.9 µM | TGI (SW-620 colon): > 100 µM | TGI (T-47D breast): > 100 µM | TGI (TK-10 renal): > 100 µM | TGI (U251 CNS): > 100 µM | TGI (UACC-257 melanoma): 97.5 µM | TGI (UACC-62 melanoma): 77.3 µM | TGI (UO-31 renal): > 100 µM
